Columns and labels:
Assay in all cases: relative viability (nuclei count vs DMSO), 5 days (fraction); higher = more cells survive
[1] = tested on: NCI-H661
How it was run: (§1)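 Lung cancer cell lines were seeded in 1536-well plates and dosed by pin tool the next day, with either a single drug or a fixed anchor-drug dose combined with five library-drug doses (not always all listed) spaced in √10 steps. Five days later, one step fixed the cells and stained their nuclei (final 0.05% Triton X-100, 1% formaldehyde, 1 ug/ml Hoechst), and nuclei were counted on 4× images. Relative viability is the nuclei count in treated wells divided by the count in vehicle wells, and each value is the median of duplicate plates.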

[2] = tested on: NCI-H1651
How it was run: as §1

[3] = tested on: NCI-H2085
How it was run: as §1

[4] = tested on: NCI-H2087
How it was run: as §1

[5] = tested on: NCI-H322M
How it was run: as §1

[6] = tested on: PC-14
How it was run: as §1

[7] = tested on: PC-3 [JPC-3]
How it was run: as §1

[8] = tested on: H3255
How it was run: as §1

[9] = tested on: CAL-12T
How it was run: as §1

[10] = tested on: LCLC-97TM1
How it was run: as §1

[11] = tested on: NCI-H1666
How it was run: as §1

[12] = tested on: NCI-H1395
How it was run: as §1

[13] = tested on: LK-2
How it was run: as §1

[14] = tested on: SK-MES-1
How it was run: as §1

[15] = tested on: NCI-H1355
How it was run: as §1

[16] = tested on: A-427
How it was run: as §1

[17] = tested on: UMC-11
How it was run: as §1

[18] = tested on: NCI-H1792
How it was run: as §1

[19] = tested on: NCI-H358
How it was run: as §1

[20] = tested on: NCI-H2228
How it was run: as §1

[21] = tested on: NCI-H838
How it was run: as §1

[22] = tested on: NCI-H1915
How it was run: as §1

`O=C(O)CCCCC(CCSCc1ccccc1)SCc1ccccc1` (centres undefined) [CPI-613] + Nc1nc2[nH]cc(CCc3ccc(C(=O)N[C@@H](CCC(=O)O)C(=O)O)cc3)c2c(=O)[nH]1 [Pemetrexed] (partner 0.2 µM) was tested, and the relative viability ([1]; first compound 5 µM) was 0.887, the relative viability ([1]; first compound 15.81 µM) was 0.921 and the relative viability ([1]; first compound 50 µM) was 0.863. The relative viability ([1]; first compound 158.11 µM) was 0.557, the relative viability ([1]; first compound 500 µM) was 0.131 and the relative viability ([2]; first compound 5 µM) was 0.591. It also gave a relative viability ([2]; first compound 15.81 µM) of 0.588, a relative viability ([2]; first compound 50 µM) of 0.579 and a relative viability ([2]; first compound 158.11 µM) of 0.519. It also gave a relative viability ([2]; first compound 500 µM) of 0.579, a relative viability ([3]; first compound 5 µM) of 0.827 and a relative viability ([3]; first compound 15.81 µM) of 0.672. The relative viability ([3]; first compound 50 µM) was 0.82, the relative viability ([3]; first compound 158.11 µM) was 0.492 and the relative viability ([3]; first compound 500 µM) was 0.18. It also gave a relative viability ([4]; first compound 5 µM) of 0.642, a relative viability ([4]; first compound 15.81 µM) of 0.662 and a relative viability ([4]; first compound 50 µM) of 0.689. The relative viability ([4]; first compound 158.11 µM) was 0.574, the relative viability ([4]; first compound 500 µM) was 0.007 and the relative viability ([5]; first compound 5 µM) was 0.617. It also gave a relative viability ([5]; first compound 15.81 µM) of 0.58, a relative viability ([5]; first compound 50 µM) of 0.616 and a relative viability ([5]; first compound 158.11 µM) of 0.637. It also gave a relative viability ([5]; first compound 500 µM) of 0.441, a relative viability ([6]; first compound 5 µM) of 0.133 and a relative viability ([6]; first compound 15.81 µM) of 0.13. It also gave a relative viability ([6]; first compound 50 µM) of 0.122, a relative viability ([6]; first compound 158.11 µM) of 0.121 and a relative viability ([6]; first compound 500 µM) of 0.0065. It also gave a relative viability ([7]; first compound 5 µM) of 1.13, a relative viability ([7]; first compound 50 µM) of 1.11 and a relative viability ([7]; first compound 158.11 µM) of 0.606. The relative viability ([7]; first compound 500 µM) was 0.362, the relative viability ([8]; first compound 5 µM) was 0.543 and the relative viability ([8]; first compound 15.81 µM) was 0.54. The relative viability ([8]; first compound 50 µM) was 0.543, the relative viability ([8]; first compound 158.11 µM) was 0.534 and the relative viability ([8]; first compound 500 µM) was 0.523. The relative viability ([9]; first compound 5 µM) was 1.02, the relative viability ([9]; first compound 15.81 µM) was 1.03 and the relative viability ([9]; first compound 50 µM) was 1.02. The relative viability ([9]; first compound 158.11 µM) was 0.0985, the relative viability ([9]; first compound 500 µM) was 0.0501 and the relative viability ([10]; first compound 5 µM) was 0.166. It also gave a relative viability ([10]; first compound 15.81 µM) of 0.208, a relative viability ([10]; first compound 50 µM) of 0.176 and a relative viability ([10]; first compound 158.11 µM) of 0.162. It also gave a relative viability ([10]; first compound 500 µM) of 0.0608, a relative viability ([11]; first compound 5 µM) of 0.892 and a relative viability ([11]; first compound 15.81 µM) of 0.857. It also gave a relative viability ([11]; first compound 50 µM) of 0.835, a relative viability ([11]; first compound 158.11 µM) of 0.489 and a relative viability ([11]; first compound 500 µM) of 0.471. The relative viability ([12]; first compound 5 µM) was 0.942, the relative viability ([12]; first compound 15.81 µM) was 0.671 and the relative viability ([12]; first compound 50 µM) was 0.868. The relative viability ([12]; first compound 158.11 µM) was 0.723, the relative viability ([12]; first compound 500 µM) was 0.598 and the relative viability ([13]; first compound 5 µM) was 0.337. For the same molecule, the relative viability ([13]; first compound 15.81 µM) was 0.225, the relative viability ([13]; first compound 50 µM) was 0.324 and the relative viability ([13]; first compound 158.11 µM) was 0.265. For the same molecule, the relative viability ([13]; first compound 500 µM) was 0.241, the relative viability ([14]; first compound 5 µM) was 0.975 and the relative viability ([14]; first compound 15.81 µM) was 0.807. It also gave a relative viability ([14]; first compound 50 µM) of 0.737, a relative viability ([14]; first compound 158.11 µM) of 0.17 and a relative viability ([14]; first compound 500 µM) of 0.104. It also gave a relative viability ([15]; first compound 5 µM) of 1.02, a relative viability ([15]; first compound 15.81 µM) of 0.983 and a relative viability ([15]; first compound 50 µM) of 1.06. The relative viability ([15]; first compound 158.11 µM) was 0.754, the relative viability ([15]; first compound 500 µM) was 0.457 and the relative viability ([16]; first compound 5 µM) was 1.04. For the same molecule, the relative viability ([16]; first compound 15.81 µM) was 0.84, the relative viability ([16]; first compound 50 µM) was 0.928 and the relative viability ([16]; first compound 158.11 µM) was 0.857. For the same molecule, the relative viability ([16]; first compound 500 µM) was 0.444, the relative viability ([17]; first compound 5 µM) was 0.703 and the relative viability ([17]; first compound 15.81 µM) was 0.8. For the same molecule, the relative viability ([17]; first compound 50 µM) was 0.758, the relative viability ([17]; first compound 158.11 µM) was 0.36 and the relative viability ([17]; first compound 500 µM) was 0.115. The relative viability ([18]; first compound 5 µM) was 0.744, the relative viability ([18]; first compound 15.81 µM) was 0.63 and the relative viability ([18]; first compound 50 µM) was 0.636. It also gave a relative viability ([18]; first compound 158.11 µM) of 0.109, a relative viability ([18]; first compound 500 µM) of 0.0742 and a relative viability ([19]; first compound 5 µM) of 0.152. It also gave a relative viability ([19]; first compound 15.81 µM) of 0.172, a relative viability ([19]; first compound 50 µM) of 0.182 and a relative viability ([19]; first compound 158.11 µM) of 0.156. For the same molecule, the relative viability ([19]; first compound 500 µM) was 0.0253, the relative viability ([20]; first compound 5 µM) was 0.362 and the relative viability ([20]; first compound 15.81 µM) was 0.33. For the same molecule, the relative viability ([20]; first compound 50 µM) was 0.324, the relative viability ([20]; first compound 158.11 µM) was 0.272 and the relative viability ([20]; first compound 500 µM) was 0.059. For the same molecule, the relative viability ([21]; first compound 5 µM) was 0.232, the relative viability ([21]; first compound 15.81 µM) was 0.229 and the relative viability ([21]; first compound 50 µM) was 0.215. It also gave a relative viability ([21]; first compound 158.11 µM) of 0.149, a relative viability ([21]; first compound 500 µM) of 0.0989 and a relative viability ([22]; first compound 5 µM) of 0.415. It also gave a relative viability ([22]; first compound 15.81 µM) of 0.513, a relative viability ([22]; first compound 50 µM) of 0.458 and a relative viability ([22]; first compound 158.11 µM) of 0.409. The relative viability ([22]; first compound 500 µM) was 0.0364.
